Source: patent publication US20100297194A1, “FORMULATION FOR ORAL ADMINISTRATION OF APOPTOSIS PROMOTER” (priority 2009, published 2010)
Where a name gives a salt, the structure may show the parent alone.

Assays:
Assay type in all cases: physicochemical
[1] = solubility in lipid solvents (Example 1); conditions: ambient conditions, listed as ABT-263 bis-HCl salt;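 note: solubility in mg/g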
Description: Solubility of ABT-263 parent (free base, crystalline Form I) and ABT-263 bis-HCl salt was tested in a variety of lipid solvents and solvent mixtures in ambient conditions. “PE-91” is Phosal 53 MCT™+ethanol, 9:1 by volume. “LOT-343” is Labrafil M 1944 CS™+oleic acid+Tween 80™, 30:40:30 by weight.
In some cases, indicated in Table 4 by an asterisk (*), solubility was initially high but precipitation occurred upon standing.

[2] = drug solubility in ternary excipient systems (Example 2); set-up: key: ✓: vehicle miscible, or drug fully dissolved in vehicle; conditions: 10% salt, 20% free base
Description: (§1) Solvents evaluated included Labrafil M 1944 CS™, Imwitor 742™ oleic acid, Capmul PG-8™, Capmul PG-12™, Lauroglycol 90™ and Phosal 53 MCT™. Surfactants evaluated included Tween™ 80, Cremophor RH40™, Gelucire 44/14™ and Labrasol™.

[3] = as above; set-up: key: ✓: vehicle miscible, or drug fully dissolved in vehicle; X: vehicle immiscible or miscible but turbid, or residual solids present (due to undissolved drug or precipitation); conditions: 10% salt, 20% free base
Description: as §1

CC1(C)CCC(c2ccc(Cl)cc2)=C(CN2CCN(c3ccc(C(=O)NS(=O)(=O)c4ccc(N[C@H](CCN5CCOCC5)CSc5ccccc5)c(S(=O)(=O)C(F)(F)F)c4)cc3)CC2)C1 [ABT-263 bis-HCl]
Solubility ([1]; in Capmul MCM): >321 mg/g | Solubility ([1]; in Capmul PG-8): <43 mg/g | Solubility ([1]; in Capmul PG-12): <39 mg/g | Solubility ([1]; in Captex 300): <52 mg/g | Solubility ([1]; in Imwitor 742): >245 mg/g | Solubility ([1]; in Labrafil M 1944 CS): <45 mg/g | Solubility ([1]; in Labrafil M 2125 CS): <44 mg/g | Solubility ([1]; in Labrasol): >292 mg/g | Solubility ([1]; in Lipoid S75 MCT): 48.9 mg/g | Solubility ([1]; in Miglyol 810): <84 mg/g | Solubility ([1]; in PE-91 (Phosal 53 MCT+ethanol 9:1 by volume)): 89 mg/g | Solubility ([1]; in PEG-400): >278 mg/g | Solubility ([1]; in Tween 20): >176 mg/g | Solubility ([1]; in Tween 80): >125 mg/g | Solubility ([1]; in castor oil): >78.8 mg/g | Solubility ([1]; in corn oil): <104 mg/g | Solubility ([1]; in oleic acid): <498 mg/g | Solubility ([1]; in poloxamer 124): <41 mg/g | Solubility ([1]; in propylene glycol): >337 mg/g | Solubility ([1]; in sesame oil): <80 mg/g | ABT-263 solubility ([2]; C8LL (Capmul PG-8/Labrafil M 1944 CS/Labrasol) 40:40:20 by weight): ✓ | ABT-263 solubility ([2]; C12LT (Capmul PG-12/Labrafil M 1944 CS/Tween 80) 30:40:30 by weight): ✓ | ABT-263 solubility ([2]; C12LT (Capmul PG-12/Labrafil M 1944 CS/Tween 80) 35:40:25 by weight): ✓ | ABT-263 solubility ([2]; C12LT (Capmul PG-12/Labrafil M 1944 CS/Tween 80) 40:30:30 by weight): ✓ | ABT-263 solubility ([2]; C12LT (Capmul PG-12/Labrafil M 1944 CS/Tween 80) 45:30:25 by weight): ✓ | ABT-263 solubility ([2]; ILC (Imwitor 742/Labrafil M 1944 CS/Cremophor RH40) 50:30:20 by weight, listed as ABT-263 bis-HCl salt): ✓ | ABT-263 solubility ([2]; ILC (Imwitor 742/Labrafil M 1944 CS/Cremophor RH40) 50:40:10 by weight, listed as ABT-263 bis-HCl salt): ✓ | ABT-263 solubility ([2]; ILC (Imwitor 742/Labrafil M 1944 CS/Cremophor RH40) 60:30:10 by weight, listed as ABT-263 bis-HCl salt): ✓ | ABT-263 solubility ([2]; ILL (Imwitor 742/Labrafil M 1944 CS/Labrasol) 40:40:20 by weight, listed as ABT-263 bis-HCl salt): ✓ | ABT-263 solubility ([2]; ILL (Imwitor 742/Labrafil M 1944 CS/Labrasol) 50:30:20 by weight, listed as ABT-263 bis-HCl salt): ✓ | ABT-263 solubility ([2]; ILL (Imwitor 742/Labrafil M 1944 CS/Labrasol) 50:40:10 by weight, listed as ABT-263 bis-HCl salt): ✓ | ABT-263 solubility ([2]; ILL (Imwitor 742/Labrafil M 1944 CS/Labrasol) 60:30:10 by weight, listed as ABT-263 bis-HCl salt): ✓ | ABT-263 solubility ([2]; LIT (Labrafil M 1944 CS/Imwitor 742/Tween 80) 30:40:30 by weight, listed as ABT-263 bis-HCl salt): ✓ | ABT-263 solubility ([2]; LIT (Labrafil M 1944 CS/Imwitor 742/Tween 80) 40:30:30 by weight, listed as ABT-263 bis-HCl salt): ✓ | ABT-263 solubility ([2]; LLL (Lauroglycol 90/Labrafil M 1944 CS/Labrasol) 40:40:20 by weight): ✓ | ABT-263 solubility ([2]; LLL (Lauroglycol 90/Labrafil M 1944 CS/Labrasol) 50:30:20 by weight): ✓ | ABT-263 solubility ([2]; LLL (Lauroglycol 90/Labrafil M 1944 CS/Labrasol) 50:40:10 by weight, listed as ABT-263 bis-HCl salt): ✓ | ABT-263 solubility ([2]; LLL (Lauroglycol 90/Labrafil M 1944 CS/Labrasol) 60:30:10 by weight, listed as ABT-263 bis-HCl salt): ✓ | ABT-263 solubility ([2]; LOT (Labrafil M 1944 CS/oleic acid/Tween 80) 30:40:30 by weight): ✓ | ABT-263 solubility ([2]; LOT (Labrafil M 1944 CS/oleic acid/Tween 80) 30:45:25 by weight): ✓ | ABT-263 solubility ([2]; LOT (Labrafil M 1944 CS/oleic acid/Tween 80) 40:30:30 by weight): ✓ | ABT-263 solubility ([2]; LOT (Labrafil M 1944 CS/oleic acid/Tween 80) 40:35:25 by weight): ✓ | ABT-263 solubility ([2]; OLL (oleic acid/Labrafil M 1944 CS/Labrasol) 40:40:20 by weight): ✓ | ABT-263 solubility ([2]; OLL (oleic acid/Labrafil M 1944 CS/Labrasol) 50:30:20 by weight): ✓ | ABT-263 solubility ([2]; OLL (oleic acid/Labrafil M 1944 CS/Labrasol) 50:40:10 by weight): ✓ | ABT-263 solubility ([2]; OLL (oleic acid/Labrafil M 1944 CS/Labrasol) 60:30:10 by weight): ✓ | ABT-263 solubility ([3]; C8LL (Capmul PG-8/Labrafil M 1944 CS/Labrasol) 50:30:20 by weight): X | ABT-263 solubility ([3]; C8LL (Capmul PG-8/Labrafil M 1944 CS/Labrasol) 50:40:10 by weight): X | ABT-263 solubility ([3]; C8LL (Capmul PG-8/Labrafil M 1944 CS/Labrasol) 60:30:10 by weight): X | ABT-263 solubility ([3]; C8LT (Capmul PG-8/Labrafil M 1944 CS/Tween 80) 30:40:30 by weight): X | ABT-263 solubility ([3]; C8LT (Capmul PG-8/Labrafil M 1944 CS/Tween 80) 35:40:25 by weight): X | ABT-263 solubility ([3]; C8LT (Capmul PG-8/Labrafil M 1944 CS/Tween 80) 40:30:30 by weight): X | ABT-263 solubility ([3]; C8LT (Capmul PG-8/Labrafil M 1944 CS/Tween 80) 45:30:25 by weight): X
